Reference: BindingDB's records for doi:10.1016/S0960-894X(00)80229-2 (1992)
pIC50: −log10 of the molar value.

Assay: Agonistic activity at kappa opioid receptor of rabbit vas deferens

Point of comparison: `CSc1ccc(CC(=O)N2CCN(C(C)=O)CC2CN2CC[C@H](O)C2)cc1` (stereo partly drawn) [1-[4-Acetyl-2-((S)-3-hydroxy-pyrrolidin-1-ylmethyl)-piperazin-1-yl]-2-(4-methylsulfanyl-phenyl)-ethanone], pIC50 7.43. Against it:
- CC(=O)N1CCN(C(=O)Cc2ccc(Cl)c(Cl)c2)C(CN2CC[C@H](O)C2)C1 (stereo partly drawn) [1-[4-Acetyl-2-((S)-3-hydroxy-pyrrolidin-1-ylmethyl)-piperazin-1-yl]-2-(3,4-dichloro-phenyl)-ethanone] — 2.23 log units higher, 9.66
- CC(=O)N1CCN(C(=O)Cc2cc(F)cc(F)c2)C(CN2CC[C@H](O)C2)C1 (stereo partly drawn) [1-[4-Acetyl-2-((S)-3-hydroxy-pyrrolidin-1-ylmethyl)-piperazin-1-yl]-2-(3,5-difluoro-phenyl)-ethanone] — 0.91 log units higher, 8.34
- COc1cccc(CC(=O)N2CCN(C(C)=O)CC2CN2CC[C@H](O)C2)c1 (stereo partly drawn) [1-[4-Acetyl-2-((S)-3-hydroxy-pyrrolidin-1-ylmethyl)-piperazin-1-yl]-2-(3-methoxy-phenyl)-ethanone] — within 0.2 log units, 7.31
- CC(=O)N1CCN(C(=O)Cc2cccc([N+](=O)[O-])c2)C(CN2CC[C@H](O)C2)C1 (stereo partly drawn) [1-[4-Acetyl-2-((S)-3-hydroxy-pyrrolidin-1-ylmethyl)-piperazin-1-yl]-2-(3-nitro-phenyl)-ethanone] — 0.42 log units higher, 7.85
- CC(=O)N1CCN(C(=O)Cc2ccc([S+](C)[O-])cc2)C(CN2CC[C@H](O)C2)C1 (stereo partly drawn) [1-[4-Acetyl-2-((S)-3-hydroxy-pyrrolidin-1-ylmethyl)-piperazin-1-yl]-2-(4-methanesulfinyl-phenyl)-ethanone] — 0.58 log units lower, 6.85
- CC(=O)N1CCN(C(=O)Cc2ccc(S(C)(=O)=O)cc2)C(CN2CC[C@H](O)C2)C1 (stereo partly drawn) [1-[4-Acetyl-2-((S)-3-hydroxy-pyrrolidin-1-ylmethyl)-piperazin-1-yl]-2-(4-methanesulfonyl-phenyl)-ethanone] — 1.62 log units higher, 9.05
- COc1ccc(CC(=O)N2CCN(C(C)=O)CC2CN2CC[C@H](O)C2)cc1 (stereo partly drawn) [1-[4-Acetyl-2-((S)-3-hydroxy-pyrrolidin-1-ylmethyl)-piperazin-1-yl]-2-(4-methoxy-phenyl)-ethanone] — 0.79 log units lower, 6.64
- CC(=O)N1CCN(C(=O)Cc2ccc([N+](=O)[O-])cc2)C(CN2CC[C@H](O)C2)C1 (stereo partly drawn) [1-[4-Acetyl-2-((S)-3-hydroxy-pyrrolidin-1-ylmethyl)-piperazin-1-yl]-2-(4-nitro-phenyl)-ethanone] — 0.77 log units higher, 8.20
- CC(=O)N1CCN(C(=O)Cc2ccc(C(F)(F)F)cc2)C(CN2CC[C@H](O)C2)C1 (stereo partly drawn) [1-[4-Acetyl-2-((S)-3-hydroxy-pyrrolidin-1-ylmethyl)-piperazin-1-yl]-2-(4-trifluoromethyl-phenyl)-ethanone] — 1.39 log units higher, 8.82
- CC(=O)N1CCN(C(=O)Cc2ccccc2)C(CN2CC[C@H](O)C2)C1 (stereo partly drawn) [1-[4-Acetyl-2-((S)-3-hydroxy-pyrrolidin-1-ylmethyl)-piperazin-1-yl]-2-phenyl-ethanone] — 1.03 log units lower, 6.40
- COC(=O)N1CCN(C(=O)Cc2ccc(Cl)c(Cl)c2)[C@@H](CN2CCCC2)C1 [4-[2-(3,4-Dichloro-phenyl)-acetyl]-3-pyrrolidin-1-ylmethyl-piperazine-1-carboxylic acid methyl ester] — 3.27 log units higher, 10.70
